Values joined by “and” are separate entries in the source; they are usually repeats but may differ in a detail not shown here. Identical values can stand only once. Numbers after ± are expanded uncertainties.
Legend:
[1] = molar heat capacity at constant pressure; conditions: 101.33 kPa, Liquid
[2] = Molar enthalpy of transition or fusion; conditions: Crystal; DSC
[3] = Crystal; DTA

[Br-].[Br-].[Br-].[Tb+3] [terbium tribromide]
[1]
Conditions | molar heat capacity at constant pressure
305 K | 95.25 ± 3.8 J/K/mol
310 K | 96.04 ± 3.8 J/K/mol
315 K | 96.89 ± 3.9 J/K/mol
320 K | 96.99 ± 3.9 J/K/mol
325 K | 97.03 ± 3.9 J/K/mol
330 K | 96.84 ± 3.9 J/K/mol
335 K | 97.05 ± 3.9 J/K/mol
340 K | 97.06 ± 3.9 J/K/mol
345 K | 98.47 ± 3.9 J/K/mol
350 K | 98.03 ± 3.9 J/K/mol
354 K | 96.27 ± 3.9 J/K/mol
359 K | 96.56 ± 3.9 J/K/mol
364 K | 95.16 ± 3.8 J/K/mol
369 K | 95.49 ± 3.8 J/K/mol
374 K | 95.66 ± 3.8 J/K/mol
379 K | 94.73 ± 3.8 J/K/mol
384 K | 96.58 ± 3.9 J/K/mol
389 K | 94.78 ± 3.8 J/K/mol
394 K | 96.69 ± 3.9 J/K/mol
399 K | 97.48 ± 3.9 J/K/mol
404 K | 97.16 ± 3.9 J/K/mol
409 K | 97.43 ± 3.9 J/K/mol
414 K | 96.37 ± 3.9 J/K/mol
419 K | 97.26 ± 3.9 J/K/mol
424 K | 96.24 ± 3.9 J/K/mol
429 K | 97.6 ± 3.9 J/K/mol
434 K | 98.83 ± 4 J/K/mol
439 K | 98.92 ± 4 J/K/mol
444 K | 98.73 ± 4 J/K/mol
449 K | 100.77 ± 4 J/K/mol
454 K | 101.24 ± 4 J/K/mol
459 K | 102.68 ± 4.1 J/K/mol
464 K | 101.53 ± 4.1 J/K/mol
469 K | 101.69 ± 4.1 J/K/mol
474 K | 101.67 ± 4.1 J/K/mol
479 K | 101.42 ± 4.1 J/K/mol
484 K | 102.61 ± 4.1 J/K/mol
489 K | 102.5 ± 4.1 J/K/mol
494 K | 101.69 ± 4.1 J/K/mol
499 K | 102.17 ± 4.1 J/K/mol
504 K | 102.99 ± 4.1 J/K/mol
509 K | 102.18 ± 4.1 J/K/mol
514 K | 100.27 ± 4 J/K/mol
519 K | 96.88 ± 3.9 J/K/mol
524 K | 98.84 ± 4 J/K/mol
529 K | 97.84 ± 3.9 J/K/mol
534 K | 99.15 ± 4 J/K/mol
539 K | 97.79 ± 3.9 J/K/mol
543 K | 97.7 ± 3.9 J/K/mol
548 K | 97.62 ± 3.9 J/K/mol
553 K | 98.93 ± 4 J/K/mol
558 K | 98.58 ± 3.9 J/K/mol
568 K | 98.34 ± 3.9 J/K/mol
573 K | 98.95 ± 4 J/K/mol
578 K | 98.65 ± 4 J/K/mol
583 K | 99.14 ± 4 J/K/mol
588 K | 98.88 ± 4 J/K/mol
593 K | 100.12 ± 4 J/K/mol
598 K | 98.39 ± 3.9 J/K/mol
603 K | 99.23 ± 4 J/K/mol
608 K | 100.21 ± 4 J/K/mol
613 K | 99.21 ± 4 J/K/mol
618 K | 100.47 ± 4 J/K/mol
623 K | 100.62 ± 4 J/K/mol
628 K | 99.41 ± 4 J/K/mol
633 K | 99.03 ± 4 J/K/mol
638 K | 100.94 ± 4 J/K/mol
643 K | 100.9 ± 4 J/K/mol
648 K | 106.81 ± 4.3 J/K/mol
653 K | 99.85 ± 4 J/K/mol and 102.18 ± 4.1 J/K/mol
658 K | 101.21 ± 4 J/K/mol
663 K | 102.1 ± 4.1 J/K/mol
668 K | 99.19 ± 4 J/K/mol
673 K | 98.9 ± 4 J/K/mol
678 K | 101.61 ± 4.1 J/K/mol
683 K | 98.15 ± 3.9 J/K/mol
688 K | 99.94 ± 4 J/K/mol
693 K | 98.07 ± 3.9 J/K/mol
698 K | 97.98 ± 3.9 J/K/mol
703 K | 96.7 ± 3.9 J/K/mol
708 K | 97.79 ± 3.9 J/K/mol
713 K | 99.85 ± 4 J/K/mol
717 K | 99.17 ± 4 J/K/mol
722 K | 99.02 ± 4 J/K/mol
727 K | 99.08 ± 4 J/K/mol
732 K | 99.98 ± 4 J/K/mol
737 K | 99.41 ± 4 J/K/mol
742 K | 101.93 ± 4.1 J/K/mol
747 K | 100.1 ± 4 J/K/mol
752 K | 104.88 ± 4.2 J/K/mol
757 K | 100.82 ± 4 J/K/mol
762 K | 101 ± 4 J/K/mol
767 K | 101.85 ± 4.1 J/K/mol
772 K | 102.41 ± 4.1 J/K/mol
777 K | 103.2 ± 4.1 J/K/mol
782 K | 102.71 ± 4.1 J/K/mol
787 K | 101.9 ± 4.1 J/K/mol
792 K | 101.02 ± 4 J/K/mol
797 K | 101.52 ± 4.1 J/K/mol
802 K | 101.51 ± 4.1 J/K/mol
807 K | 99.68 ± 4 J/K/mol
812 K | 103.05 ± 4.1 J/K/mol
817 K | 103.73 ± 4.2 J/K/mol
822 K | 102.94 ± 4.1 J/K/mol
827 K | 103.83 ± 4.2 J/K/mol
832 K | 99.83 ± 4 J/K/mol
837 K | 98.83 ± 4 J/K/mol
842 K | 101.98 ± 4.1 J/K/mol
847 K | 103.78 ± 4.2 J/K/mol
852 K | 103.32 ± 4.1 J/K/mol
857 K | 99.15 ± 4 J/K/mol
862 K | 102.98 ± 4.1 J/K/mol
867 K | 101.94 ± 4.1 J/K/mol
872 K | 105.24 ± 4.2 J/K/mol
877 K | 101.33 ± 4 J/K/mol
882 K | 103.27 ± 4.1 J/K/mol
887 K | 97.19 ± 3.9 J/K/mol
892 K | 97.82 ± 3.9 J/K/mol
897 K | 98.26 ± 3.9 J/K/mol
902 K | 101.94 ± 4.1 J/K/mol
907 K | 97.88 ± 3.9 J/K/mol
911 K | 97.43 ± 3.9 J/K/mol
916 K | 100.85 ± 4 J/K/mol
921 K | 97.21 ± 3.9 J/K/mol
926 K | 100.73 ± 4 J/K/mol
931 K | 95.04 ± 3.8 J/K/mol
936 K | 99.59 ± 4 J/K/mol
941 K | 98.67 ± 4 J/K/mol
946 K | 99.44 ± 4 J/K/mol
951 K | 102.23 ± 4.1 J/K/mol
956 K | 103.73 ± 4.2 J/K/mol
961 K | 99.7 ± 4 J/K/mol
966 K | 98.27 ± 3.9 J/K/mol
971 K | 101.79 ± 4.1 J/K/mol
976 K | 102.55 ± 4.1 J/K/mol
981 K | 97.92 ± 3.9 J/K/mol
986 K | 104.37 ± 4.2 J/K/mol
991 K | 100.42 ± 4 J/K/mol
996 K | 107.17 ± 4.3 J/K/mol
1001 K | 105.67 ± 4.2 J/K/mol
1006 K | 110.34 ± 4.4 J/K/mol
1011 K | 102.11 ± 4.1 J/K/mol
1016 K | 100.99 ± 4 J/K/mol
1021 K | 106.91 ± 4.3 J/K/mol
1026 K | 105.87 ± 4.2 J/K/mol
1031 K | 112.44 ± 4.5 J/K/mol
1036 K | 99.98 ± 4 J/K/mol
1041 K | 101.71 ± 4.1 J/K/mol
1046 K | 101.91 ± 4.1 J/K/mol
1051 K | 106.32 ± 4.2 J/K/mol
1056 K | 110.86 ± 4.4 J/K/mol
1061 K | 111.7 ± 4.5 J/K/mol

Conditions | Molar enthalpy of transition or fusion [kcal/mol] | Normal melting temperature [°C]
[2] | 8.94 ± 0.287 | –
[3] | – | 830 ± 2
